Assay [1] addresses T1, CDK1/Cyclin B (Homo sapiens, UniProt P06493).
T1 construct: purchased Invitrogen PR4768C
Briefly: Enzymatic assay for CDK1 (LANCE Ultra kinase assay, FRET based). It counts as biochemical. Conditions: ATP at Km; read-out: CDK1 enzymatic activity IC50. The procedure, abridged: (§1)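 Kinase activity of each purified CDK/cyclin complex was followed in a FRET format where a Europium anti-phospho-antibody recognises phosphorylated ULight-labeled peptide. ATP was held at its Km.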

In assay [2] the test system is MV4-11. Briefly: Cellular MV4-11 viability assay (CellTiter-Glo, 72 hours). It counts as cell-based. To be noted: Homo sapiens; MV4-11 cells. How it is done: Human […] cell line, MV4-11_(ATCC, Cat #CRL-9591), NSCLC (Non-small cell lung cancer) cell line H460 (ATCC, Cat #HTB-177), A2780 (ECACC, Cat #93112519) and OVCAR-3(ATCC, Cat #HTB-161) were obtained from ATCC. Cells were grown in RPMI-1640 media (Invitrogen, Cat #22400-089) supplemented with 10% FBS (Invitrogen, Cat #10099141) and 1% penicillin/streptomycin (Invitrogen, Cat #15070063) and cultured at 37° C., 5% CO2 in a humidified chamber. All cell lines were routinely tested for mycoplasma.
To effect of the CDK7 inhibitor to inhibit the growth of target cancer cells, viability assay were conducted a 72 hour time period. Briefly, the candidate cell line was plated in 96 well plate at the following density of cells respectively. 1×10^4 cells/well for MV4-11, 5×10^3 for H460 and OVCAR-3, and 1×10^3 for A2780. After 24 hours, the cells were treated with various concentrations of the compound (ranging from 0.0015 uM to 10 uM). DMSO solvent without compound served as a control and final DMSO concentration lest than 0.1%. After 72 hours of incubation at 37° C., 5% CO2 incubator, cells were analyzed for the viability using the CellTiter-Glo Luminescent Cell Viability Assay (Promega, Cat #G7570). All viability assays were performed in duplicate and Luminescence was read using an Envision (Perkin Elmer, USA). Data was analyzed using XLfit software.

Assay [3] has as its target T2, CDK7/Cyclin H/MNAT1 (Homo sapiens, UniProt P50613).
T2 construct: purchased Invitrogen PR6749B
Briefly: Enzymatic assay for CDK7 (LANCE Ultra kinase assay, FRET based). It counts as biochemical. To be noted: for IC50: ATP at Km. The procedure, abridged: as §1

Assay [4] has as its target T3, CDK2/Cyclin A (Homo sapiens, UniProt P24941).
T3 construct: purchased Invitrogen PV6290
Kind of assay: Enzymatic assay for CDK2 (LANCE Ultra kinase assay, FRET based). It is filed as biochemical. To be noted: ATP at Km. A digest of the protocol: (§2)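 TR-FRET kinase assay at ATP Km with ULight-MBP peptide (68 nM) and Eu-anti-phospho-MBP antibody; CDK2/Cyclin A at […], CDK5/p25 at […]. 8-dose 4-fold compound dilutions; 60 min kinase reaction at 23° C., EDTA stop, 60 min detection, read at 615/665 nm.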

The target of assay [5] is T4, CDK5/p25 (Homo sapiens, UniProt Q00535).
T4 construct: purchased Invitrogen PR8543B
Briefly: Enzymatic assay for CDK5 (LANCE Ultra kinase assay, FRET based). It counts as biochemical. Conditions: ATP at Km. A digest of the protocol: as §2

Assay [6] deals with OVCAR-3. Kind of assay: OVCAR-3 viability assay (CellTiter-Glo, 72 hours). Conditions: Homo sapiens; OVCAR-3 cells. It is filed as cell-based. The procedure, abridged:
(§3)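 Each line was plated at its own density (1×10^4, 5×10^3 and 1×10^3 cells/well for MV4-11, OVCAR-3 and A2780 respectively) in RPMI-1640 with 10% FBS. Treatment with compound, 0.0015 uM to 10 uM and DMSO under 0.1%, lasted 72 h. Surviving cells were quantified by CellTiter-Glo.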

The test system of assay [7] is A2780. Briefly: A2780 viability assay (CellTiter-Glo, 72 hours). It is filed as cell-based. To be noted: Homo sapiens; A2780 cells. A digest of the protocol: as §3

T4 sequence (Q00535 whole entry): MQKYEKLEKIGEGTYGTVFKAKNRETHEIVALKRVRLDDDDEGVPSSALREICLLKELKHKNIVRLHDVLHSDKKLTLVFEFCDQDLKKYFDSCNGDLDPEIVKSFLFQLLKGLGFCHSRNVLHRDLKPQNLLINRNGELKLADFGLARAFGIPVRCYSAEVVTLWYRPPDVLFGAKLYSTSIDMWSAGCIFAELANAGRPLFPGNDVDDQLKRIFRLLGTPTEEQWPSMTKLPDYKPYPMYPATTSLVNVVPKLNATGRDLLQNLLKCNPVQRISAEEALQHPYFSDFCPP
T4 sequence (Q15078 99-307 partner limits assumed): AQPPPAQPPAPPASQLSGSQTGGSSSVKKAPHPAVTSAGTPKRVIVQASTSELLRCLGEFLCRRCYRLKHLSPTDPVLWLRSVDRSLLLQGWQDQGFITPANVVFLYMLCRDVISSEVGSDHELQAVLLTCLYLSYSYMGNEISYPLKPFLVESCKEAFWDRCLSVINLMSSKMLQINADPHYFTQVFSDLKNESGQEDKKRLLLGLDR
T1 sequence (P06493 whole entry): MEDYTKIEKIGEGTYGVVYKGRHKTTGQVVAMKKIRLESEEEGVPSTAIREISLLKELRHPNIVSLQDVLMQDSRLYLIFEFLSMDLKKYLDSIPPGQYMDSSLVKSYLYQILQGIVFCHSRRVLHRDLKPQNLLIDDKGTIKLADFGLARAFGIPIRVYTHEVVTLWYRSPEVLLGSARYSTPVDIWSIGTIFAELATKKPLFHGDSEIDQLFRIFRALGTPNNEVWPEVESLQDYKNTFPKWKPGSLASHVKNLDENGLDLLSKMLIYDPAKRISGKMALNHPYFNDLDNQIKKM
T1 sequence (P14635 whole entry partner): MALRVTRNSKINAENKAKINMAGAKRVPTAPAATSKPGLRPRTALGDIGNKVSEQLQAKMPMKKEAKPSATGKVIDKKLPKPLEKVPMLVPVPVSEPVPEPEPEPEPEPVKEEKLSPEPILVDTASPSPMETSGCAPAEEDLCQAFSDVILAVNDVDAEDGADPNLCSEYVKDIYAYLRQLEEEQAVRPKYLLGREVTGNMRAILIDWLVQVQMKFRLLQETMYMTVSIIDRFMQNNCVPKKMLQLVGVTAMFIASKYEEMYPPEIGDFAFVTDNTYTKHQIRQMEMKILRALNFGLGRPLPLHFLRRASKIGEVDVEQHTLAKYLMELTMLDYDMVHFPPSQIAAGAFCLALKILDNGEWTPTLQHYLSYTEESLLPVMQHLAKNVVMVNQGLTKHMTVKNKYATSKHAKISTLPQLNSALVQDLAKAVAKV
T2 sequence (P50613 whole entry): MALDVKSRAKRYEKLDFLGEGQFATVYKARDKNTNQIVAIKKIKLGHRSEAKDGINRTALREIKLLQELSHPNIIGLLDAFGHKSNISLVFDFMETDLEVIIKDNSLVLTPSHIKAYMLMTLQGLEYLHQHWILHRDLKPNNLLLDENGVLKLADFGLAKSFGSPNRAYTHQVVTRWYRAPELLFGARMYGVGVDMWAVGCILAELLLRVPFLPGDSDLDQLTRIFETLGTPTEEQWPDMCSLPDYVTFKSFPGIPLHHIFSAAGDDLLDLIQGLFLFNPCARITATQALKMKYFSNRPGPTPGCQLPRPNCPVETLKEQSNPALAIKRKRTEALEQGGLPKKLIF
T2 sequence (P51946 whole entry partner): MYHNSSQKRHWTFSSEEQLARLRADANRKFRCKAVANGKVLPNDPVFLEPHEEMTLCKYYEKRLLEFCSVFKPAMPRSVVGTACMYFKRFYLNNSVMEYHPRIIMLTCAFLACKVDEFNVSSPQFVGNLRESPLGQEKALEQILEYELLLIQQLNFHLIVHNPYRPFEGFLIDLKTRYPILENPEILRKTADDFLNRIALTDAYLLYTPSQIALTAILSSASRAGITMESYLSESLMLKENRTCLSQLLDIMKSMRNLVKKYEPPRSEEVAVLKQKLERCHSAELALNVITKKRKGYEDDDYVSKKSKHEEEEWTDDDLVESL
T2 sequence (P51948 whole entry partner): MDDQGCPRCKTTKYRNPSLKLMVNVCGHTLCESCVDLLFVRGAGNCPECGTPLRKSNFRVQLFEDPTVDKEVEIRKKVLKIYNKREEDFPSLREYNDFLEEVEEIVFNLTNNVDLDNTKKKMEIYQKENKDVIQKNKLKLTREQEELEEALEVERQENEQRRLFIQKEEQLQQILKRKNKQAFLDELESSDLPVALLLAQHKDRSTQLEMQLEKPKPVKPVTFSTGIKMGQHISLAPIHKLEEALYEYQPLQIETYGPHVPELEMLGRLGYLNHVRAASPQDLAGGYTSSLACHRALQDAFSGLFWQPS

With `C=CC(=O)Nc1ccc2c(-c3ccccc3CNc3nc(NC[C@H]4CCNC[C@@H]4O)nc4c(C(C)C)cnn34)nccc2c1` [Compound 60], the half-inhibitory concentration (IC50) in assay [1] is above 1 µM; in assay [2], below 1 µM; in assay [3], below 0.1 µM; in assay [4], above 1 µM; in assay [5], above 1 µM; in assay [6], below 1 µM. Also, the IC50 in assay [7] is below 1 µM. The “CDK1/CDK7: Selectivity of CDK7 inhibition over CDK1 inhibition” value in assay [3] was “A (A indicates [fold] > 500)”. For the same molecule, the “CDK2/CDK7: Selectivity of CDK7 inhibition over CDK2 inhibition” value in assay [3] was “A (A indicates [fold] > 500)”. For the same molecule, the “CDK5/CDK7: Selectivity of CDK7 inhibition over CDK5 inhibition” value in assay [3] was “A (A indicates [fold] > 500)”.
For `COC1CCN(c2nc(NCc3ccccc3-c3nccc4cc(NC(=O)/C=C/CN(C)C)ccc34)n3ncc(C(C)C)c3n2)CC1` [Compound 61], the IC50 was above 1 µM in assay [1]; below 1 µM in assay [2]; below 0.1 µM in assay [3]; above 1 µM in assay [4]; above 1 µM in assay [5]; below 1 µM in assay [6]. The IC50 in assay [7] was below 1 µM. The “CDK1/CDK7: Selectivity of CDK7 inhibition over CDK1 inhibition” value in assay [3] was “A (A indicates [fold] > 500)”. In assay [3], the “CDK2/CDK7: Selectivity of CDK7 inhibition over CDK2 inhibition” value was “A (A indicates [fold] > 500)”. The “CDK5/CDK7: Selectivity of CDK7 inhibition over CDK5 inhibition” value in assay [3] is “A (A indicates [fold] > 500)”.
For `CC(C)c1cnn2c(NCc3ccccc3-c3nccc4cc(NC(=O)/C=C/CN(C)C)ccc34)nc(NC3CCC(O)CC3)nc12` (centres unmarked) [Compound 36], the IC50 is above 1 µM in assay [1]; below 1 µM in assay [2]; below 0.1 µM in assay [3]; above 1 µM in assay [4]; above 1 µM in assay [5]; below 1 µM in assay [6]. The molecule further yielded an IC50 in assay [7] below 1 µM. Moreover, the “CDK1/CDK7: Selectivity of CDK7 inhibition over CDK1 inhibition” value in assay [3] is “A (A indicates [fold] > 500)”. In addition, the “CDK2/CDK7: Selectivity of CDK7 inhibition over CDK2 inhibition” value in assay [3] was “A (A indicates [fold] > 500)”. In addition, in assay [3], the “CDK5/CDK7: Selectivity of CDK7 inhibition over CDK5 inhibition” value was “A (A indicates [fold] > 500)”.
As to `C/C=C/C(=O)Nc1ccc2c(-c3ccccc3CNc3nc(NC[C@H]4CCNC[C@@H]4O)nc4c(C(C)C)cnn34)nccc2c1` [Compound 68], the concentration for half-maximal inhibition (IC50) was above 1 µM in assay [1]; below 1 µM in assay [2]; below 0.1 µM in assay [3]; above 1 µM in assay [4]; above 1 µM in assay [5]; below 1 µM in assay [6]. Further, the concentration for half-maximal inhibition (IC50) in assay [7] was below 1 µM. Also, the “CDK1/CDK7: Selectivity of CDK7 inhibition over CDK1 inhibition” value in assay [3] is “A (A indicates [fold] > 500)”. The “CDK2/CDK7: Selectivity of CDK7 inhibition over CDK2 inhibition” value in assay [3] is “A (A indicates [fold] > 500)”. In assay [3], the “CDK5/CDK7: Selectivity of CDK7 inhibition over CDK5 inhibition” value is “A (A indicates [fold] > 500)”.
For the molecule `CC(C)=CC(=O)Nc1ccc2c(-c3ccccc3CNc3nc(N4CCC(N)CC4)nc4c(C(C)C)cnn34)nccc2c1` [Compound 40], the IC50 in assay [1] is above 1 µM; in assay [2] it was below 1 µM; in assay [3], below 0.1 µM; in assay [4] it was above 1 µM; in assay [5], above 1 µM; in assay [6], below 1 µM. Further, the IC50 in assay [7] was below 1 µM. The “CDK1/CDK7: Selectivity of CDK7 inhibition over CDK1 inhibition” value in assay [3] was “A (A indicates [fold] > 500)”. Further, the “CDK2/CDK7: Selectivity of CDK7 inhibition over CDK2 inhibition” value in assay [3] was “A (A indicates [fold] > 500)”. Besides, the “CDK5/CDK7: Selectivity of CDK7 inhibition over CDK5 inhibition” value in assay [3] was “B (B indicates 50 < [fold] ≤ 500)”.
Turning to `CC(C)c1cnn2c(NCc3ccccc3-c3nccc4cc(NC(=O)/C=C/CN(C)C)ccc34)nc(NCC3CCNC(=O)C3)nc12` (racemic) [Compound 30], the IC50 in assay [1] was above 1 µM; in assay [2], below 1 µM; in assay [3] it was 0.1 to 1 µM; in assay [4], above 1 µM; in assay [5], above 1 µM; in assay [6], below 1 µM. The same molecule displayed an IC50 in assay [7] below 1 µM. For the same molecule, the “CDK1/CDK7: Selectivity of CDK7 inhibition over CDK1 inhibition” value in assay [3] was “B (B indicates 50 < [fold] ≤ 500)”. For the same molecule, the “CDK2/CDK7: Selectivity of CDK7 inhibition over CDK2 inhibition” value in assay [3] was “B (B indicates 50 < [fold] ≤ 500)”. Moreover, the “CDK5/CDK7: Selectivity of CDK7 inhibition over CDK5 inhibition” value in assay [3] was “B (B indicates 50 < [fold] ≤ 500)”.
As for `C=C(C)C(=O)Nc1ccc2c(-c3ccccc3CNc3nc(N4CCC(N)CC4)nc4c(C(C)C)cnn34)nccc2c1` [Compound 48], the IC50 in assay [1] is above 1 µM; in assay [2], below 1 µM; in assay [3] it was below 0.1 µM; in assay [4], above 1 µM; in assay [5], above 1 µM; in assay [6] it was below 1 µM. Also, the half-maximal inhibitory concentration (IC50) in assay [7] is below 1 µM. Further, the “CDK1/CDK7: Selectivity of CDK7 inhibition over CDK1 inhibition” value in assay [3] was “A (A indicates [fold] > 500)”. For the same molecule, the “CDK2/CDK7: Selectivity of CDK7 inhibition over CDK2 inhibition” value in assay [3] is “A (A indicates [fold] > 500)”. Also, in assay [3], the “CDK5/CDK7: Selectivity of CDK7 inhibition over CDK5 inhibition” value was “A (A indicates [fold] > 500)”.
Regarding `COC/C=C/C(=O)Nc1ccc2c(-c3ccccc3CNc3nc(N4CCC(N)CC4)nc4c(C(C)C)cnn34)nccc2c1` [Compound 54], the IC50 in assay [1] is above 1 µM; in assay [2], below 1 µM; in assay [3], below 0.1 µM; in assay [4] it was above 1 µM; in assay [5] it was above 1 µM; in assay [6], below 1 µM. The IC50 in assay [7] is below 1 µM. The “CDK1/CDK7: Selectivity of CDK7 inhibition over CDK1 inhibition” value in assay [3] is “A (A indicates [fold] > 500)”. Moreover, the “CDK2/CDK7: Selectivity of CDK7 inhibition over CDK2 inhibition” value in assay [3] is “A (A indicates [fold] > 500)”. The “CDK5/CDK7: Selectivity of CDK7 inhibition over CDK5 inhibition” value in assay [3] is “A (A indicates [fold] > 500)”.
As to `C=CC(=O)Nc1ccc2c(-c3ccccc3CNc3nc(N4CCC(N)CC4)nc4c(C(C)C)cnn34)nccc2c1` [Compound 46], the IC50 in assay [1] is above 1 µM; in assay [2], below 1 µM; in assay [3], below 0.1 µM; in assay [4], above 1 µM; in assay [5], above 1 µM; in assay [6], below 1 µM. In assay [7], this molecule had a 50% inhibitory concentration (IC50) below 1 µM. In addition, the “CDK1/CDK7: Selectivity of CDK7 inhibition over CDK1 inhibition” value in assay [3] is “A (A indicates [fold] > 500)”. For the same molecule, the “CDK2/CDK7: Selectivity of CDK7 inhibition over CDK2 inhibition” value in assay [3] was “A (A indicates [fold] > 500)”. Further, the “CDK5/CDK7: Selectivity of CDK7 inhibition over CDK5 inhibition” value in assay [3] is “A (A indicates [fold] > 500)”.
For the molecule `CC(C)c1cnn2c(NCc3ccccc3-c3nccc4cc(NC(=O)/C=C/CN5CCCCC5)ccc34)nc(NC[C@H]3CCNC[C@@H]3O)nc12` [Compound 76], the half-inhibitory concentration (IC50) is above 1 µM in assay [1]; below 1 µM in assay [2]; below 0.1 µM in assay [3]; above 1 µM in assay [4]; above 1 µM in assay [5]; below 1 µM in assay [6]. In assay [7], this molecule registered an IC50 below 1 µM. Also, in assay [3], the “CDK1/CDK7: Selectivity of CDK7 inhibition over CDK1 inhibition” value is “A (A indicates [fold] > 500)”. The “CDK2/CDK7: Selectivity of CDK7 inhibition over CDK2 inhibition” value in assay [3] is “A (A indicates [fold] > 500)”. Moreover, the “CDK5/CDK7: Selectivity of CDK7 inhibition over CDK5 inhibition” value in assay [3] was “A (A indicates [fold] > 500)”.
As for `CC(C)c1cnn2c(NCc3ccccc3-c3ccnc4cc(NC(=O)/C=C/CN(C)C)ccc34)nc(N3CCC(N)CC3)nc12` [Compound 55], the IC50 is above 1 µM in assay [1]; below 1 µM in assay [2]; below 0.1 µM in assay [3]; above 1 µM in assay [4]; above 1 µM in assay [5]; below 1 µM in assay [6]. Besides, in assay [7], the IC50 is below 1 µM. Moreover, the “CDK1/CDK7: Selectivity of CDK7 inhibition over CDK1 inhibition” value in assay [3] is “A (A indicates [fold] > 500)”. Besides, in assay [3], the “CDK2/CDK7: Selectivity of CDK7 inhibition over CDK2 inhibition” value was “A (A indicates [fold] > 500)”. The “CDK5/CDK7: Selectivity of CDK7 inhibition over CDK5 inhibition” value in assay [3] was “B (B indicates 50 < [fold] ≤ 500)”.

The record behind these values is patent publication US12606561B2, “Substituted pyrazolo[1,5-a][1,3,5]triazines as CDK inhibitors” (QURIENT CO., LTD., priority 2018, dated 2026).
